Laboratory results from patent publication US5512671A, “Ether lipid-nucleoside covalent conjugates” (Wake Forest University, priority 1995, dated 1996).

Key:
CEM-SS cells [1] = experiment: CEM-SS cell growth, 3H-Tdr pulse label DNA synthesis (Example 23); type: cell-based; conditions: Homo sapiens, 48 hours at 37° C., then 3H-Tdr 8 hours
HIV-1 [2] = experiment: Plaque assay: inhibition of HIV-1 syncytial plaque formation in CEM-SS cells (Example 15); type: cell-based, human immunodeficiency virus type 1 (HIV-1); conditions: for IC50: Human immunodeficiency virus 1, CEM-SS, 120 h, read-out: Inhibitory Concentration50 for HIV-1 Plaque Formation; for Differential Selectivity: ratio IC50 for cytotoxicity / IC50 for HIV1 plaque formation
From the text: Anti-HIV1 Activity of Lipid-Nucleoside Conjugates. […] In brief, CEM-SS cell monolayers were infected with HIV-1. […] Plaques were counted at five days after infection. In this assay HIV-1 syncytial plaques are seen as large, multicellular foci (10 to 25 nuclei/syncytium) that appear either brown and granular or clear. Silnce the number of HIV-1 syncytial plaques correlates with reverse transcriptase (RT) and p24 core antigen activity in the HIV-1 infected cell overlay fluids, the syncytial plaque assay can be used to quantify the amount of infectious virus. […] The activity of p24 core antigen induced by HIV-1 infection of CEM-SS cells was measured spectrophotometrically using the commercial Coulter EIA.

in vitro = conditions: human, cem-ss cells
HIV-1 [3] = experiment: HIV-1 plaque formation in CEM-SS cells (Example 23); type: cell-based; conditions: for IC50: read-out: IC50 HIV-1 Plaque Formation; for D.S. (Differential selectivity): average IC50 for CEMSS cell growth / average IC50 for HIV1 plaque formation
Description: Anti-HIV1 Activity of Lipid-Nucleoside Conjugates. CEM-SS cells were seeded (50,000 cells/ml RPMI-1640 growth medium) as a monolayer in 96-well dishes, innoculated with 50 to 100 plaque forming units of HIV-1 and overlaid with serial dilutions of lipid-nucleoside conjugate in RPHI-1640 growth medium. Plaques were counted after five days incubation at 37° C. to determine the 50% inhibitory concentration.

HIV-1 [4] = experiment: HIV-1 induced RT in persistently infected monocyte/macrophage (U1) cells; type: cell-based; conditions: control 79,328 DPM = 100
From the text: (§1) See C. Perno et al., J. Exp. Med. 168, 1111 (1984).

HIV-1 [5] = experiment: HIV-1 induced p24 core antigen synthesis in persistently infected monocyte/macrophage (U1) cells; type: cell-based; conditions: control 94 = 100
From the text: as §1

HIV-1 [6] = experiment: Infectious HIV-1 production (PFU) in persistently infected monocyte/macrophage (U1) cells; type: cell-based
From the text: as §1

CEM-SS cells [7] = experiment: Cell cytotoxicity (Example 15, Table 1); conditions: conjugate IC50 53.8 μM vs AZT IC50 5.6 μM
[8] = Human immunodeficiency virus 1, 120 h, CEM-SS cells, five days incubation at 37° C.

Structure (SMILES)	IC50 (HIV-1 [2]) [nM]	Differential Selectivity (HIV-1 [2])	CC50 (in vitro) [nM]	other results
CCCCCCCCCCCCCCCCOCC(COP(=O)(O)OP(=O)(O)OCC1OC(n2cc(C)c(=O)[nH]c2=O)CC1N=[N+]=[N-])OCC [A, 3'-Azido-3'-deoxythymidine-5'-diphosphate-D,L-3-hexadecyloxy-2-ethoxypropane]				IC50 (CEM-SS cells [1]): > 100000 nM
CCCCCCCCCCCCCCCCSCC(COP(=O)(O)OC[C@H]1O[C@@H](n2cc(C)c(=O)[nH]c2=O)C[C@@H]1N=[N+]=[N-])OC (stereo partly drawn) [Compound C, 3'azido-3'-deoxythymidine-5'-monophosphate-D,L-3-hexadecylthio-2-methoxypropane]	20 ± 10	1465	29200 ± 5700	
CCCCCCCCCCCCCCCCCC(=O)NCC(COP(=O)(O)OC[C@H]1O[C@@H](n2cc(C)c(=O)[nH]c2=O)C[C@@H]1N=[N+]=[N-])OCC (some centres unmarked) [A]	30 ± 20		53800 ± 7800	
CCCCCCCCCCCCCCCCCC(=O)NCC(COP(=O)(O)OP(=O)(O)OC[C@H]1O[C@@H](n2cc(C)c(=O)[nH]c2=O)C[C@@H]1N=[N+]=[N-])OCC (stereo partly drawn) [Compound H, 3'-Azido-3-deoxythymidine-5'-diphosphate-D,L-3-octadecanamido-2-ethoxypropane]				IC50 (HIV-1 [3]; [8]): 11 nM; D.S. (Differential selectivity) (HIV-1 [3]): 600; IC50 (CEM-SS cells [1]): 6600 nM
CCCCCCCCCCCCCCCCOCC(CP(=O)(O)OC[C@H]1O[C@@H](n2cc(C)c(=O)[nH]c2=O)C[C@@H]1N=[N+]=[N-])OC (stereo partly drawn) [Compound E, 3'-Azido-3'-deoxythymidine-5'-phosphono-D,L-3-hexadecyloxy-2-methoxypropane]	20 ± 10	1260	25200 ± 1100	
O=c1[nH]cnc2c1ncn2[C@H]1CC[C@@H](CO)O1 [DDI, dideoxyinosine, reference compound]	1700		> 100000	
Cc1cn([C@H]2C[C@H](N=[N+]=[N-])[C@@H](CO)O2)c(=O)[nH]c1=O [AZT, 3'-azido-3'-deoxythymidine]	4 ± 1		5600	RT DPM, Percent of Control (HIV-1 [4]): 90% of Control; p24 core Ag, Percent of Control (HIV-1 [5]): 101% of Control; inhibition of infectious HIV-1 production (HIV-1 [6]): 13%; PFU, Percent of Control (HIV-1 [6]; control 750 PFU = 100): 87% of Control; IC50 (HIV-1 [3]; Human immunodeficiency virus 1, CEM-SS, 120 h): 4 nM
CCCCCCCCCCCCCCCCOCC(COP(=O)([O-])OC(CC(=O)OC[C@H]1O[C@@H](n2cc(C)c(=O)[nH]c2=O)C[C@@H]1N=[N+]=[N-])C[N+](C)(C)C)OCC (stereo partly drawn) [Compound AA, 3'-Azido-3'-deoxythymidine-5'-butyrate-γ-N,N,N-trimethyl-ammonium-β-(1-phospho-2-ethoxy-3-hexadecyloxypropane)]				IC50 (HIV-1 [3]; [8]): 4 nM; D.S. (Differential selectivity) (HIV-1 [3]): 3375
CCCCCCCCCCCCCCCCOCC(COP(=O)(O)OC[C@H]1O[C@@H](n2cc(C)c(=O)[nH]c2=O)C[C@@H]1N=[N+]=[N-])OCC (stereo partly drawn) [Compound B, 3'-azido-3'deoxythymidine-5'-monophosphate-D,L-3-hexadecyloxy-2-ethoxypropane]	30 ± 20	1167	35000 ± 2100	
CCCCCCCCCCCCCCCCCC(=O)NCC(COP(=O)(O)OC[C@H]1O[C@@H](n2cc(C)c(=O)[nH]c2=O)C[C@@H]1N=[N+]=[N-])OCC (stereo partly drawn) [Compound A, 3,-azido-3'-deoxythymidine-5'-monophosphate-D,L-3-octadecanamido-2-ethoxypropane]				decrease in cell cytotoxicity compared to AZT (CEM-SS cells [7]): about ten-fold
CCCCCCCCCCCCCCCCCC(=O)NCC(COP(=O)(O)OC[C@@H]1CC[C@H](n2cnc3c(=O)[nH]cnc32)O1)OCC (stereo partly drawn) [Compound D, 2,3,-dideoxyinosine-5'-monophosphate-D,L-3-octadecanamido-2-ethoxypropane]	1560 ± 800	> 64	> 100000	
CCCCCCCCCCCCCCCCCC(=O)NCC(COP(=O)([O-])OC(CC(=O)OC[C@H]1O[C@@H](n2cc(C)c(=O)[nH]c2=O)C[C@@H]1N=[N+]=[N-])C[N+](C)(C)C)OCC (stereo partly drawn) [BB, 3'-Azido-3-deoxythymidine-5'-butyrate-γ-N,N,N-trimethyl-ammonium-β-(1-phospho-2-ethoxy-3octadecanamidopropane)]				IC50 (HIV-1 [3]; [8]): 40 nM; D.S. (Differential selectivity) (HIV-1 [3]): 342
